The nature of series [1]: Maximum non-lethal dose (NLD), single intravenous dose in mice. Particulars: test compounds as aspartate salts in 5% mannitol, AmB as FUNGIZONE
The class given is in vivo, Swiss-Webster male mice. In a few lines: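 Groups of four male Swiss-Webster mice received one intravenous dose of aspartate salt in 5% mannitol/water, freshly prepared. Doses were raised or lowered after each round until the maximum non-lethal dose was found.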

Series [2] is described as follows: Two week range-finding toxicity study in mice. The class given is in vivo, CD-1 mice. Particulars: both sexes, CD-1, mouse, in vivo, iv, intravenous once daily on days 1 to 5 and 8 to 12. The method, then: A variety of the compounds synthesized as described in Section 5, supra, were tested in various in vivo assays, as described below. The results of the various assays are provided in TABLE 3, presented at the end of this section. In all of the in vivo assays described, the test compounds, in the form of the aspartate salts, were formulated in an aqueous vehicle (5% mannitol in sterile water; OSMITROL, Baxter Healthcare, Deerfield, Ill.), followed by appropriate dilutions. The formulations were prepared fresh before dosing.
AmB and AME were also tested for comparison. For AmB, the commercially available FUNGIZONE (Bristol-Meyers Squibb Co.) was used. Reported values are based upon the weight of the AmB active ingredient, not on the basis of the weight of the FUNGIZONE powder. AME was formulated in OSMITROL as described for the test compounds.
Various polyene macrolide amide derivatives of the invention were evaluated to characterize their potential toxicity when administered subchronically by intravenous injection.
CD-1® mice (Charles River Laboratories, Portage, Mich.) were acclimated to laboratory conditions for at least 5 days before the start of dosing. During the acclimation period, the general condition of the mice was evaluated, and those considered healthy were used. The mice were randomly assigned to treatment groups using a stratified body weight regimen. Each treatment group consisted of 3 male and 3 female mice. The mice were housed in a room with a controlled environment and provided rodent chow and water ad libitum.
On the first day of dosing, the mice were approximately 7 to 9 weeks old and weighed 22 to 30 g. Doses were administered by intravenous injection once daily on study days 1 to 5 and 8 to 12. Dosages were selected based upon data from efficacy and toxicology studies, and ranged from 1.25 to 30 mg/kg/day. Clinical observations were recorded 0.5 hr after dosing on days 1, 3, 5, 8, 10, 12 and 15, and on any day a change was observed. Body weights were recorded prior to dosing and on study days 8 and 12, and on study day 15 at the completion of the in-life phase of the study.
Animals that were found in a moribund/deteriorating clinical state were euthanized (animal designated killed in extremis) by inhalation of CO2. The day of death for any animal found dead or killed in extremis was recorded. Any animal that died prematurely was removed from the study without further processing.
One day after completion of dosing (study day 16), all surviving mice were euthanized by inhalation of CO2. Their kidneys were preserved for histopathologic examination. The maximum no-observed-adverse-effect level (NOAEL) was determined on the basis of clinical and histopathologic findings. The values for AmB and AME are provided for comparison.

Read-outs that look alike come from different tables or passages of the source.

As to `C[C@@H]1[C@H](O)[C@@H](C)/C=C/C=C/C=C/C=C/C=C/C=C/C=C/[C@H](O[C@@H]2O[C@H](C)[C@@H](O)[C@H](N)[C@@H]2O)C[C@@H]2O[C@](O)(C[C@@H](O)C[C@@H](O)[C@H](O)CC[C@@H](O)C[C@@H](O)CC(=O)O[C@H]1C)C[C@H](O)[C@H]2C(=O)O` [AMB, amphotericin B, reference compound], the NLD acute mice in series [1] worked out at 1.5 mg/kg. Also, the NOAEL – broadly, the highest dose or exposure tested at which no adverse effect was seen – at 2 week in series [2] (clinical findings, read-out: NOAEL 2 week mice clinical) turned out to be 0.5 mg/kg; in series [2] (histopathologic (kidney) findings, read-out: NOAEL 2 week mice histological), 0.85 mg/kg.

These data come from patent US6664241B2, “Water-soluble amide derivatives of polyene macrolides and preparation and uses thereof” (Micrologix Biotech Inc., priority 2000, dated 2003).
